Entries after “also recorded” stand apart in the source; their conditions may differ. No end group written: not given here. *: point of attachment. Stearoyl = CCCCCCCCCCCCCCCCCC(=O)*
What was measured:
[1] = system: C2C12 mouse skeletal muscle myotubes; test: 3H-2-deoxyglucose uptake by fully differentiated C2C12 myotubes; type: cell-based
Procedure: The studies were performed using cultured, fully differentiated C2C12 mouse skeletal muscle myotubes. The cells were prepared by growing C2C12 cells to confluent density in DMEM with 25 mM glucose and 10% fetal bovine serum in 24 well plates. At this time, the medium was changed to differentiation medium (DMEM with 25 mM glucose and 2% horse serum) for 6 days with medium changed every third day. The various treatments were diluted in serum-free medium and, after washing the cells with serum-free medium, were added to the cells and incubated for 2 hours or alternative times, depending on the treatment. At the end of incubation period, the media was removed and 1.0 ml of glucose-free Krebs ringer bicarbonate buffer (pH 7.4), containing the same treatments, was added and incubation continued for 10 minutes. At the end of the 10 min incubation period, ^3H-2-deoxyglucose ([…]) (specific activity=8 Ci/mmole) was added directly to all wells, and the incubation continued for an additional 10 min. The wells were then rinsed three times with ice cold phosphate buffered saline, the cells were extracted with 0.5 N NaOH, and the ^3H-2-deoxyglucose content of the cell lysate quantitated by scintillation counting.

AMPK = AMPK phosphorylation (pT172 immunoblot) in C2C12 myotubes; type: cell-based, mouse
Procedure: (§1) For signaling studies the cells were prepared the same way except 6-well plates were used. After 6 days incubation in differentiating medium, the cells were washed with serum-free medium. The various treatments were then added in serum free medium containing 0.1% BSA. HBD1 peptides were added and incubated for 8 hours. When utilizing IGF-I, incubation was for 15 minutes after IGF-1 addition. Following incubation the cells were lysed in RIPA buffer and sonicated. The cell lysate was centrifuged and the supernatant analyzed for either Akt or AMPK by SDS PAGE using a 10% gel followed by immunoblotting with the appropriate antibody.
To examine further the intracellular transduction pathways utilized by the HBD1 peptides, following treatment with HBD1 peptide SEQ ID NO: 73 (C18:0-HLGLEEPKK), cell lysate proteins, were separated by SDS PAGE and immunoblotted with anti-pAMPK T172.

[2] = system: glucose telemetered ob/ob mice; test: Basal blood glucose and IPGTT in glucose-telemetered ob/ob mice, 28 days of twice daily treatment; type: in vivo, mouse; conditions: for glucose intolerance: glucose telemetered ob/ob mice, 1 and 3 mg/kg s.c. twice daily, 27-28 days, vs vehicle
Procedure: To further assess the effects of HBD1 peptides on glucose and insulin metabolisms, basal blood glucose and glucose response to an intraperitoneal glucose tolerance test (IPGTT) were assessed in glucose-telemetered obese ob/ob mice after twice daily administration of HBD peptides for 28 consecutive days. Implantation of glucose telemetry device (HD-XG, Data Science International) was carried out according to known protocols.
A dose of HBD peptide fragment of SEQ ID NO: 73 (C18:0-HLGLEEPKK) was administered twice daily at 8-hour±1 hour interval between the two daily administrations. 24 V-Lepob/J (Ob/Ob) male mice (The Jackson Laboratory, Farmington, Conn. USA) were administered subcutaneously with vehicle (NaCl 0.9%) (Control group) or with the peptide at 1 and 3 mg/kg (Test groups) (n=5-8 animals for each group) twice daily for 28 days. The first day of dosing was designated as Day 1. Bolus injection was carried out using a sterile syringe and the needle was introduced subcutaneously, 2 to 4 injection sites were used in rotation. The hair of the animals on the injection area was clipped prior to the first injection and then as necessary during the treatment period. The volume administered was 5 mL/kg/administration. Individual dose volumes were calculated using the latest body weight. On day 27, 16-hour mean blood glucose levels were assessed in normal fed conditions. On day 28, fasted (4 hours) mice were injected intraperitoneally with glucose at 1 g/kg. Plasma blood glucose profile (expressed as mg/dL) was recorded every minute up to 3-hour post glucose injection.
Intraperitoneal glucose tolerance test (IPGTT)—On the morning of the IGPTT day (day 28), 2-hour fasted animals were treated with vehicle or with the HBD fragment. Glucose solution was administered 2 hours±15 minutes post-dosing (vehicle or a peptide as set forth in SEQ ID NO: 73 (C18:0-HLGLEEPKK). Blood glucose was monitored from 10 minutes before (fasting condition) to 3-hour post-glucose challenge. Food was re-introduced 4 hours post-glucose challenge. The second treatment of the day (the HBD fragment or vehicle) was performed 2 hours after food re-introduction.

[3] = system: B6.V-Lepob/J mice (ob/ob); test: Intraperitoneal glucose tolerance test in ob/ob mice after 15 days of twice daily treatment; type: in vivo, mouse; conditions: 3 mg/kg s.c. twice daily for 15 days, 45 min after 1 g/kg i.p. glucose, vs vehicle
Procedure: After being acclimatized 7 days to the laboratory conditions, nine-week-old male B6.V-Lepob/J. mice (Charles River) were subcutaneously administered with vehicle (NaCl 0.9%) or with a peptide as set forth in SEQ ID NO: 73 (C18:0-HLGLEEPKK) at 3 mg/kg (n=5 animals for each group) twice daily for 15 days. On day 15, fasted (overnight) mice were injected intraperitoneally with glucose at 1 g/kg. Plasma blood glucose (expressed as mmol/L) was recorded at 45 minutes post glucose injection.

Akt = Akt phosphorylation (pS473 immunoblot) in C2C12 myotubes; type: cell-based, mouse; conditions: 8 hours incubation (FIG. 6)
Procedure: as §1
To examine the intracellular transduction pathways utilized by the HBD1 peptides, following treatment with HBD1 peptide SEQ ID NO: 73 (C18:0-HLGLEEPKK), cell lysate proteins were separated by SDS PAGE and immunoblotted with anti-Akt pS473 antibodies.

3T3-LI adipocytes = test: [3H]-2-deoxyglucose uptake by fully differentiated 3T3-LI adipocytes; type: cell-based, mouse; conditions: 3 μg/ml for 24 hours
Procedure: 3T3-LI cells are a mouse fibroblast cell line which when cultured under specific conditions, differentiate into adipocytes.
Differentiation of 3T3-LI cells into adipocytes was achieved using the following protocol. 3T3-L1 cells were seeded in 24-well plates and cultured in 3T3-L1 maintenance medium (DMEM containing 10% fetal bovine serum, 4 mM L-glutamine 1 mM, sodium pyruvate) until the cells were 100% confluent. The cells were then fed with 3T3-L1 maintenance medium and cultured for a further 48 h. To initiate differentiation into adipocytes, the medium was changed to Differentiation medium 1 (DMEM containing 10% fetal bovine serum, 4 mM L-glutamine, 1 mM sodium pyruvate, 0.5 mM IBMX, […]), and cultured for a further 2 days. The medium was then changed to Differentiation medium 2 (DMEM containing 10% fetal bovine serum, 4 mM L-glutamine, 1 mM sodium pyruvate, 1 mg/ml insulin), and cultured for a further 2 days. The medium was then changed to Adipocyte Maintenance medium (DMEM containing 10% fetal bovine serum, 4 mM L-glutamine, 1 mM sodium pyruvate), and cultured for a further 7 days. During this time, the medium was changed every other day. The now fully differentiated adipocytes were utilized for glucose uptake experiments (day 11 from initiation of differentiation). Stock solutions of the HBD1 peptides to be tested were prepared by dilution with 0.9% NaCl solution under sterile conditions in a laminar flow cabinet to a concentration of 1 mg/ml, based on net peptide content. The solutions were homogenized by gentle inversion. Test items were prepared from the stock solutions, and remaining stock solution was aliquoted and stored at −20° C. and used without repeated freeze-thaw cycles.
Glucose uptake experiments were carried our using the following protocol. Prior to beginning the experiment, 100 ml of Krebs Ringer bicarbonate buffer (KRBB)(25 mM Hepes pH 7.4, 118 mM NaCl, 5 mM NaHCO3, 4.7 mM KCl, 1.2 mM KH2PO4, 1.2 mM MgSO4, 2.5 mM CaCl2, 0.2% BSA—Filtered using a 0.2 μm filter) and 100 ml of Incubation medium (DMEM containing 4 mM L-glutamine, 1 mM sodium pyruvate, 1% penicillin streptomycin, 0.2% BSA—Filtered using a 0.2 μm filter) were pre-warmed to 37° C., and 500 ml of KRBB was chilled on ice. Stock solutions of test compounds were diluted to 3 μg/ml final concentrations in pre-warmed Incubation medium and in pre-warmed KRBB. Insulin (positive control), previously diluted 1:1000 in sterile 0.9% NaCl, was further diluted in 10 ml of both medium and buffer to a final concentration of 1 nM. All traces of the medium were carefully removed from the cells using a fine tip. 1 ml of incubation medium containing study compounds or vehicle was added to the appropriate wells. No insulin was added at this time. […]

mice = mice (Xi, 2013); cited from earlier work
[4] = listed as acylated HBD1 (3-11) fragment

c1cc(-c2cnn3cc(-c4ccc(OCCN5CCCCC5)cc4)cnc23)ccn1 [Compound C, reference compound]
effect on SEQ ID NO: 73-stimulated glucose uptake ([1]; C2C12 myotubes, SEQ ID NO: 73 alone or together with insulin (FIG. 8)): completely abolished; also recorded: prevented
effect on SEQ ID NO: 73-induced AMPK phosphorylation (AMPK; C2C12 myotubes treated with SEQ ID NO: 73 (FIG. 7)): completely abolished; also recorded: prevented

C18:0-HLGLEEPKK (Stearoyl-HLGLEEPKK) [SEQ ID NO: 73]
glucose uptake by C2C12 myotubes with insulin, separate experiment ([1]; 1.5 μM together with insulin (FIG. 8)): act additively with insulin; also recorded: in an additive manner with insulin
glucose uptake by C2C12 myotubes, separate experiment ([1]; 1.5 μM, alone (FIG. 8)): increased glucose uptake
glucose uptake by C2C12 myotubes ([1]; 0.8, 1.5, 2.3 μM, 1.5 μM for 2, 4, 16 hours, vs vehicle-treated controls (FIGS. 5A-5B)): stimulated increased glucose uptake as compared with vehicle-treated controls in both a dose- and time-dependent manner; also recorded: dose-dependent (FIG. 5A) and time-dependent (FIG. 5B) increases in glucose uptake
glucose uptake by C2C12 myotubes in combination with insulin ([1]; in combination with insulin (FIG. 5C)): additive increase in glucose uptake
phosphorylated AMPK (AMPK; C2C12 myotubes, 8 hours incubation (FIG. 7)): dose-dependent increase in phosphorylated AMPK; also recorded: dose-dependent phosphorylation (activation) of the AMPK pathway
effect on fasting glucose and glucose excursion at the high dose ([2]; 3 mg/kg, after 4 weeks): marked effect
glucose excursion following IPGTT ([2]; after 4 weeks of administration, 3-hour profile after 1 g/kg i.p. glucose): decreased
fasting glucose levels ([2]; after 4 weeks of administration, 10 min prior to IPGTT): decreased fasting glucose levels
16-hour average blood glucose levels ([2]; day 27, normal fed conditions): markedly decrease 16-hour average blood glucose levels
glucose intolerance [2]: improved glucose intolerance in a dose-dependent manner
glucose intolerance [2, 4]: improves glucose intolerance
plasma glucose levels in response to the IP glucose tolerance test [3]: reduced the plasma glucose levels
plasma glucose levels in response to the IP glucose tolerance test [3, 4]: improves glucose intolerance
phosphorylated Akt (Akt): dose-related increase in phosphorylated Akt; also recorded: dose-dependent phosphorylation (activation) of the Akt pathway
glucose uptake by 3T3-LI adipocytes (3T3-LI adipocytes): stimulated increased glucose uptake

HHLGLEEPKK [SEQ ID NO: 16]
glucose uptake by 3T3-LI adipocytes (3T3-LI adipocytes): stimulated increased glucose uptake

HLGLEEPKK [SEQ ID NO: 10]
glucose uptake by 3T3-LI adipocytes (3T3-LI adipocytes): stimulated increased glucose uptake

KHHLGLEEPKKLR [SEQ ID NO: 1]
body weight and fat accumulation (mice): decrease body weight and fat accumulation
glucose tolerance (mice): no effect on glucose tolerance
glucose uptake by 3T3-LI adipocytes (3T3-LI adipocytes): stimulated increased glucose uptake

Reference: patent publication US20210196789A1, “HEPARIN-BINDING DOMAIN OF IGFBP-2 IN THE TREATMENT OF METABOLIC DISORDERS” (AMOLYT PHARMA, priority 2018, published 2021)
